Results taken from PMC6132687, “Stem cells are the most sensitive screening tool to identify toxicity of GATA4-targeted novel small-molecule compounds” (Archives of Toxicology, 2018).

What was measured:
hiPSCs = test: MTT assay in hiPSCs; assay type: cell-based, human; conditions: for IC50: Homo sapiens, 24-h exposure, read-out: IC50 (hiPSC viability)
Method: The cells were exposed to the test compounds for 24 h and cytotoxicity was quantified with MTT and LDH assays as described previously (Talman et al. [2011]). For the determination of cell membrane integrity, 50 µl of medium from each well was transferred onto a new 96-well plate followed by addition of 50 µl of substrate solution containing 1.3 mM β-nicotinamide adenine dinucleotide, 660 µM iodonitrotetrazolium, 54 mM L(+)-lactic acid, 280 µM phenazine methosulphate and 0.2 M Tris–HCl (pH 8.0). After a 30-min incubation, the reaction was stopped by adding 50 µl of 1 M acetic acid to each well and absorbance was measured at 490 nm using Victor2 plate reader (PerkinElmer, Turku, Finland). Spontaneous LDH release was measured from untreated cells, maximal LDH release from cells lysed with 0.9% Triton X-100 and background absorbance was measured from wells without cells. After background extraction, cytotoxicity was calculated as follows: cytotoxicity (%) = [(sample − spontaneous LDH release)/(maximal LDH release − spontaneous LDH release)] × 100. For quantification of metabolic activity, 3-(4,5-dimethylthiazol-2-yl)-2,5-diphenyltetrazolium bromide (MTT) was added to the cells at a final concentration of 0.5 mg/ml followed by 2 h incubation in cell culture conditions. The medium was then aspirated and formazan crystals were solubilized in DMSO. Absorbance was measured at 550 nm and absorbance at 650 nm was subtracted as background. […]
Human pluripotent stem cells (hiPSCs): The iPS(IMR90)-4 line (Yu et al. 2007) was purchased from WiCell (Madison, Wisconsin, USA). The cells were cultured in Essential 8 ™ medium (E8) on 6-well plates coated with Matrigel® (1:50) and passaged 1:15 approximately every four days. The cells were dissociated using Versene®, resuspended in E8 containing 10 µM ROCK inhibitor (Y-27632) and seeded at 10,000 cells/well (cytotoxicity assays) or 5,000 cells/well (high-content imaging) in Matrigel®-coated 96-well plates. The cells were incubated overnight in standard conditions prior to compound addition. […]
(§1) 1640 without glucose with B-27 supplement in order to purify cardiomyocytes. From day 15 onwards the cells were maintained in RPMI 1640 supplemented with B-27 (RB+ins). Beating hiPSC-CMs were dissociated between days 15 and 22 by incubating them in cell dissociation solution containing 40% enzyme-free cell dissociation buffer, 40% RPMI 1640 and 20% trypsin-EDTA (final trypsin concentration 0.01%) for 7–8 min, whereafter the cells were collected and trypsin was inactivated in RB+ins supplemented with 10% FBS. After centrifugation the cells were suspended in RB+ins with 10% FBS containing 10 µM ROCK inhibitor and seeded at 15,000 cells/well (cytotoxicity assays) or 20,000 cells/well (high content analysis) in gelatin-coated 96-well plates. The cells were let to attach for 2 days at 37 °C in standard conditions, whereafter the compounds were added in RB+ins. In general, the differentiation yielded an almost pure (>95%) cardiomyocyte culture.
(§2) Syntheses and characterization of compounds
Materials and general procedures. All reagents were acquired from Sigma-Aldrich (Schnelldorf, Germany) and Enamine (Kiev, Ukraine), and were used without further purification. All reactions in anhydrous solvents were conducted in oven-dried glassware under anhydrous argon. Thin-layer chromatography (TLC) was performed using Silica Gel 60 F254 (Merck) and Silica Gel 60 NH2 F254s aluminium sheets (Merck), visualized by UV illumination and stained with ninhydrin in EtOH (1.5% w/v). Microwave reactions were performed with a Biotage Initiator+ Robot Eight microwave (Uppsala, Sweden). Column chromatography was performed with an automated high performance flash chromatography Biotage Sp4-system or with a Isolera Spektra One-system (Uppsala, Sweden) using a 0.1-mm path length flow cell UV-detector/recorder module (fixed wavelength 254 nm) for the […] or a variable UV-VIS (200-800 nm) photodiode array detector for the Isolera Spektra One- […]

mESCs = test: MTT assay in mESCs; assay type: cell-based, mouse; conditions: 24 h; for reduction in cell viability: 30 µM
Method: The cells were exposed to the test compounds for 24 h and cytotoxicity was quantified with MTT and LDH assays as described previously (Talman et al. [2011]). For the determination of cell membrane integrity, 50 µl of medium from each well was transferred onto a new 96-well plate followed by addition of 50 µl of substrate solution containing 1.3 mM β-nicotinamide adenine dinucleotide, 660 µM iodonitrotetrazolium, 54 mM L(+)-lactic acid, 280 µM phenazine methosulphate and 0.2 M Tris–HCl (pH 8.0). After a 30-min incubation, the reaction was stopped by adding 50 µl of 1 M acetic acid to each well and absorbance was measured at 490 nm using Victor2 plate reader (PerkinElmer, Turku, Finland). Spontaneous LDH release was measured from untreated cells, maximal LDH release from cells lysed with 0.9% Triton X-100 and background absorbance was measured from wells without cells. After background extraction, cytotoxicity was calculated as follows: cytotoxicity (%) = [(sample − spontaneous LDH release)/(maximal LDH release − spontaneous LDH release)] × 100. For quantification of metabolic activity, 3-(4,5-dimethylthiazol-2-yl)-2,5-diphenyltetrazolium bromide (MTT) was added to the cells at a final concentration of 0.5 mg/ml followed by 2 h incubation in cell culture conditions. The medium was then aspirated and formazan crystals were solubilized in DMSO. Absorbance was measured at 550 nm and absorbance at 650 nm was subtracted as background.
Mouse embryonic stem cells (mESCs), embryoid bodies (EBs), and primary mouse embryonic fibroblasts (MEFs) were used for toxicity experiments. E14 mESCs were cultured in feeder-free conditions on plates coated with 0.1% gelatin in DMEM with 15% FBS, GlutaMax, MEM non-essential amino acids, 2-mercaptoethanol, and leukemia inhibitory factor (LIF). For toxicity assays, the cells were dissociated with TrypLe and plated at 5,000 cells/well in gelatin-coated 96-well plates 24 hours prior to compound exposures. […]
as §1, §2
Materials and general procedures. All reagents were acquired from Sigma-Aldrich (Schnelldorf, Germany) and Enamine (Kiev, Ukraine), and were used without further purification. All reactions in anhydrous solvents were conducted in oven-dried glassware under anhydrous argon. Thin-layer chromatography (TLC) was performed using Silica Gel 60 F254 (Merck) and Silica Gel 60 NH2 F254s aluminium sheets (Merck), visualized by UV illumination and stained with ninhydrin in EtOH (1.5% w/v). […] The 1H and 13C NMR spectra were recorded on a Varian

SMILES	IC50 (hiPSCs) [nM]	reduction in cell viability (hiPSCs; hiPSCs, 24 h, at ≥ 3 µM)	reduction in cell viability (mESCs)	reduction in viability (hiPSCs; hiPSCs, 24 h, 30 µM)	sensitivity of cell type to compound (viability) (hiPSCs; hiPSCs, 24 h)	sensitivity of cell type to compound (viability) (mESCs)
CCN(CC)c1ccc(NC(=O)c2c(-c3ccccc3)noc2C)cc1 [3i-1000]	1460	93–94%	56%			
CCN(CC)c1ccc(NC(=O)c2c(C)noc2-c2cc(C)on2)cc1 [3i-1047]			38–45%	38–45%		
CCC(=O)N(Cc1ccc(N(CC)CC)cc1)c1c(-c2ccccc2)noc1C [3i-1120]	600				sensitive	sensitive
CCN(CC)c1ccc(NC(=O)c2cc(C)oc2-c2ccccc2)cc1 [3i-1148]	300				sensitive	sensitive
COc1ccc(-c2cc(N)nn2C(=O)c2c(-c3ccccc3)noc2C)cc1 [3i-1229]	2070				sensitive	sensitive
